Measurements: article PMC7286885, “An iron (II) dependent oxygenase performs the last missing step of plant lysine catabolism” (Nature Communications, 2020)

Key:
[1] = molecular target: T1, AT1G07040 (Arabidopsis thaliana, UniProt Q9LMJ7); experiment: in vitro assay, product by high resolution LC-MS; type: biochemical; conditions: conversion to 2-hydroxyglutarate; N-terminal localization peptide removed
T1 construct: amplified from Arabidopsis cDNA, expressed in E. coli BL21 (DE3), Ni-NTA purified
T1 sequence (Q9LMJ7 51-371): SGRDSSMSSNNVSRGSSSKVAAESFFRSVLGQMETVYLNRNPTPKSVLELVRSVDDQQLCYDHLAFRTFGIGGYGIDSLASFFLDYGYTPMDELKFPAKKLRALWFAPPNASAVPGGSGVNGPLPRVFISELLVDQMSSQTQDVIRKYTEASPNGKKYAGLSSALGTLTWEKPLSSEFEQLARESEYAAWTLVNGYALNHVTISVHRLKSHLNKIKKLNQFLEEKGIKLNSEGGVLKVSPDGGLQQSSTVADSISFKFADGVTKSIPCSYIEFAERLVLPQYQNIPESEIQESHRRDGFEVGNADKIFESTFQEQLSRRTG

[2] = molecular target: T2, YdcJ (Escherichia coli, UniProt P76097); experiment: in vitro assay, product by high resolution LC-MS; type: biochemical; conditions: conversion to 2-hydroxyglutarate
T2 construct: recombinant in E. coli BL21 (DE3), Ni-NTA purified
T2 sequence (P76097 1-447): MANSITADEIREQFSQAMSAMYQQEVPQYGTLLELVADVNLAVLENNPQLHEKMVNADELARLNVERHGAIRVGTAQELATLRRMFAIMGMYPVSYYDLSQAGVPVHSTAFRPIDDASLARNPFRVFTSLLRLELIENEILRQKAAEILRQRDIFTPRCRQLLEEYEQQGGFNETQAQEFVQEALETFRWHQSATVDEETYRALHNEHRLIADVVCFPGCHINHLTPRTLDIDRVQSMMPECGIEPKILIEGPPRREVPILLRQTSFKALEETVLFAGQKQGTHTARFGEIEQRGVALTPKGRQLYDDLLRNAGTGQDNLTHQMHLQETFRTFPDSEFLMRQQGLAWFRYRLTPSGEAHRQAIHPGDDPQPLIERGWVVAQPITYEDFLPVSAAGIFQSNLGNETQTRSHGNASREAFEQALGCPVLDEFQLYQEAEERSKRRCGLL

[3] = molecular target: T3, FLO7 (Oryza sativa, UniProt Q337M4); experiment: X-ray crystal structure at […] Å, soaked crystals; type: binding; conditions: active-site Ni(II); Arg64 binds the substrate
T3 construct: E. coli codon-optimized gene, expressed in E. coli BL21 (DE3), Ni-NTA purified
T3 sequence (Q337M4 48-364 limits assumed): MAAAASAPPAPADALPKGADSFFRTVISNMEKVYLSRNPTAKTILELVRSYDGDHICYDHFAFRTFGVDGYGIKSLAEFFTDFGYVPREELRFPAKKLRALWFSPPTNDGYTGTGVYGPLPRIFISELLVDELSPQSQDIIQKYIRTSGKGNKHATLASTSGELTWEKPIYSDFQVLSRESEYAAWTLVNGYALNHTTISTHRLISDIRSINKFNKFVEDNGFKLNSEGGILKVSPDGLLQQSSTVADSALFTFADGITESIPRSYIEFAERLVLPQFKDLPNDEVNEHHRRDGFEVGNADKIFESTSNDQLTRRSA

[4] = molecular target: T4, HglS (Pseudomonas putida, UniProt Q88CC1); experiment: X-ray crystal structure, soaked crystals; type: binding; conditions: active-site Ni(II) (noncatalytic); 2OA carboxylate and alpha-keto group coordinate the metal, Arg74 salt bridge
T4 construct: recombinant in E. coli BL21 (DE3), Ni-NTA purified; crystals contain mainly active-site Ni(II); activity with Fe(II)
T4 sequence (Q88CC1 1-464): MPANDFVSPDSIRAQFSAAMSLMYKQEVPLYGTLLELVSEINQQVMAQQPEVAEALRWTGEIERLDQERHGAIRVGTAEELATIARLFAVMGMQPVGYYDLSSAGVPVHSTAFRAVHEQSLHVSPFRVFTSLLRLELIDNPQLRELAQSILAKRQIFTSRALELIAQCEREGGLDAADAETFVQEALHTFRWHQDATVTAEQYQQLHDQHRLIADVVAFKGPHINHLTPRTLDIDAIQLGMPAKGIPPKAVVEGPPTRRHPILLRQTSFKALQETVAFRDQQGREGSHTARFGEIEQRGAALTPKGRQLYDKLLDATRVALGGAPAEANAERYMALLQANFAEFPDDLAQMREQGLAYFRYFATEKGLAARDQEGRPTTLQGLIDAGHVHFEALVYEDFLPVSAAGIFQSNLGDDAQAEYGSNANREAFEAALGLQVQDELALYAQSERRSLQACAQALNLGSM

[5] = substrate: O=C(O)CCCC(=O)C(=O)O; experiment: initial rates of O2 consumption, Clark-type electrode; type: biochemical, Pseudomonas putida; conditions: 10 µM FeSO4, 100 mM Tris pH 7.0, room temperature, 240 µM O2, 10-200 µM 2OA, 100 nM enzyme
From the text: initial rates of O2 consumption, Clark-type electrode on HglS | kinetic parameters determined by monitoring oxygen consumption were similar to those we previously reported

[6] = substrate: O=C(O)CCCC(=O)C(=O)O; experiment: steady-state kinetics of purified enzyme; type: biochemical, Oryza sativa; conditions: Fe(II)- and O2-dependent; N-terminal localization peptide removed

O=C(O)CCCC(=O)C(=O)O [2OA, 2-oxoadipate]
in vitro assay, product by high resolution LC-MS [1]: plant homologs AT1G07040 and FLO7 catalyzed the conversion of 2OA
in vitro assay, product by high resolution LC-MS [2]: the E. coli homolog YdcJ and the plant homologs AT1G07040 and FLO7 catalyzed the conversion
X-ray crystal structure at 1.85 Å, soaked crystals [3]: soaked with 2OA, producing diffraction data used to solve the substrate-bound crystal structure
X-ray crystal structure, soaked crystals [4]: soaked HglS crystals with 2OA and solved the structure of the resulting complex

B1: HglS (Pseudomonas putida KT2440) (protein)
chain: MPANDFVSPDSIRAQFSAAMSLMYKQEVPLYGTLLELVSEINQQVMAQQPEVAEALRWTGEIERLDQERHGAIRVGTAEELATIARLFAVMGMQPVGYYDLSSAGVPVHSTAFRAVHEQSLHVSPFRVFTSLLRLELIDNPQLRELAQSILAKRQIFTSRALELIAQCEREGGLDAADAETFVQEALHTFRWHQDATVTAEQYQQLHDQHRLIADVVAFKGPHINHLTPRTLDIDAIQLGMPAKGIPPKAVVEGPPTRRHPILLRQTSFKALQETVAFRDQQGREGSHTARFGEIEQRGAALTPKGRQLYDKLLDATRVALGGAPAEANAERYMALLQANFAEFPDDLAQMREQGLAYFRYFATEKGLAARDQEGRPTTLQGLIDAGHVHFEALVYEDFLPVSAAGIFQSNLGDDAQAEYGSNANREAFEAALGLQVQDELALYAQSERRSLQACAQALNLGSM
notes: recombinant in E. coli BL21 (DE3), Ni-NTA purified; crystals contain mainly active-site Ni(II); activity with Fe(II)
Km [5]: 10 µM

B2: FLO7 (Oryza sativa Japonica Group) (protein)
chain: MAAAASAPPAPADALPKGADSFFRTVISNMEKVYLSRNPTAKTILELVRSYDGDHICYDHFAFRTFGVDGYGIKSLAEFFTDFGYVPREELRFPAKKLRALWFSPPTNDGYTGTGVYGPLPRIFISELLVDELSPQSQDIIQKYIRTSGKGNKHATLASTSGELTWEKPIYSDFQVLSRESEYAAWTLVNGYALNHTTISTHRLISDIRSINKFNKFVEDNGFKLNSEGGILKVSPDGLLQQSSTVADSALFTFADGITESIPRSYIEFAERLVLPQFKDLPNDEVNEHHRRDGFEVGNADKIFESTSNDQLTRRSA
notes: E. coli codon-optimized gene, expressed in E. coli BL21 (DE3), Ni-NTA purified
Km [6]: 550 µM
